Measurements published in PMC10465233, “Lys-urea-Aad, Lys-urea-Cmc and Lys-urea-Cms as potential pharmacophores for the design of PSMA-targeted radioligands to reduce off-target uptake in kidneys and salivary glands” (Theranostics, 2023).

Experiments:
LNCaP tumor-bearing mice [1] = experiment: Ex vivo biodistribution in LNCaP tumor-bearing mice; parameters: species or system mouse
Procedure: (§1) Imaging, biodistribution and radioligand therapy experiments were performed following previously published procedures using male NOD-scid IL2Rg^null (NSG) or NOD.Cg-Rag1^tm1MomIl2rg^tm1Wjl/SzJ (NRG) mice [10]-[12],[14]-[15]. The experiments were conducted according to the guidelines established by the Canadian Council on Animal Care and approved by Animal Ethics Committee of the University of British Columbia. The mice were briefly sedated by inhalation of 2% isoflurane in oxygen, and implanted subcutaneously with 1×10^7 LNCaP cells behind the left shoulder. The mice were imaged or used in biodistribution studies when the tumor grew to 5-8 mm in diameter over a period of 4-5 weeks.
For biodistribution studies, the mice were injected with the radioligand (2-4 MBq) as described above. For blocking, the mice were co-injected with nonradioactive DCFPyL (0.5 mg). At predetermined time points, the mice were sedated by isoflurane inhalation and euthanized by CO2 inhalation. Blood was withdrawn by cardiac puncture, and organs/tissues of interest were collected, weighed and counted using an automatic gamma counter (Tables S4-S7).

[2] = Radiation dosimetry for major organs of 25-g mice (OLINDA, MOBY phantom); format: in vivo, mouse
Procedure: Internal dosimetry estimates were calculated using the organ level internal dose assessment (OLINDA) software v.2.2 following our previously published procedures. These estimates were performed for the mouse using the 25g MOBY phantom, and for the tumors using the previously reported unit density sphere model. Both the phantom and the sphere model are available in OLINDA and require the input of the total number of decays normalized by injected activity in units of MBq×h/MBq for each of the source organ/tumor.
The biodistribution data (available in Table S5-S7) were used to determine the kinetics input values required by OLINDA. First, each of the values was decayed to its corresponding time point (the values on the table are shown at injection time). Then the different time-points of the uptake data (%ID/g) for each organ were fitted to both mono-exponential (%ID/g = ae^⎯bt) and bi-exponential (%ID/g = ae^⎯bt + ce^⎯dt) functions using in-house software developed in Python. The best fit was selected based on maximizing the coefficient of determination (R^2) of the fit and minimizing the residuals. The areas under the curves were analytically calculated based on the parameters obtained from the best fit of each organ and this provided the kinetic input values required by OLINDA.
In the mouse case, the adrenals, blood, fat, and muscle are not modeled in the phantom. These organs were grouped together and included in what OLINDA calls the remainder of the body. Lastly, the numbers of decays in the tumors were also calculated based on the biodistribution data of the mice and the values were inputted into the sphere model available in OLINDA.

LNCaP tumor-bearing mice [3] = experiment: Radioligand therapy study in LNCaP tumor-bearing mice; format: in vivo, mouse
Procedure: as §1
For radiotherapy study, tumor-bearing mice were injected with saline (the control group), [^177Lu]Lu-PSMA-617 (37 MBq) or [^177Lu]-HTK03170 (37, 18.5 and 9.3 MBq) (n = 7-8 per treatment group). Tumor size and body weight were measured twice a week from the date of injection (Day 0) until completion of the study (Day 180). Endpoint criteria were defined as > 20% weight loss, tumor volume > 1000 mm^3, or active ulceration of the tumor.

## COc1ccc(CCCC(=O)NCC(=O)N[C@@H](CCCCNC(=O)CN2CCN(CC(=O)[O-])CCN(CC(=O)[O-])CCN(CC(=O)[O-])CC2)C(=O)NC[C@H]2CC[C@H](C(=O)N[C@@H](Cc3c4ccccc4cc4ccccc34)C(=O)NCCCC[C@H](NC(=O)N[C@@H](CCCC(=O)O)C(=O)O)C(=O)O)CC2)cc1.[177Lu+3] [[^177Lu]Lu-HTK03170]
LNCaP tumor-bearing mice [1]; 1 h post-injection
  Adrenal glands uptake: 3.34 ± 0.45 %ID/g
  Blood uptake: 16.9 ± 1.97 %ID/g
  Blood:Salivary gland uptake ratio: 7.04 ± 0.86
  Bone uptake: 0.89 ± 0.27 %ID/g
  Brain uptake: 0.23 ± 0.04 %ID/g
  Fat uptake: 1.38 ± 0.45 %ID/g
  Heart uptake: 3.60 ± 0.52 %ID/g
  Intestines uptake: 1.19 ± 0.25 %ID/g
  Kidneys uptake: 13.2 ± 1.87 %ID/g
  Lacrimal glands uptake: 0.27 ± 0.08 %ID/g
  Liver uptake: 2.67 ± 0.37 %ID/g
  Lungs uptake: 8.06 ± 1.48 %ID/g
  Muscle uptake: 1.15 ± 0.19 %ID/g
  Pancreas uptake: 1.41 ± 0.31 %ID/g
  Salivary glands uptake: 2.43 ± 0.33 %ID/g
  Spleen uptake: 1.64 ± 0.83 %ID/g
  Stomach uptake: 0.59 ± 0.12 %ID/g
  Testes uptake: 2.17 ± 0.32 %ID/g
  Thyroid uptake: 2.90 ± 0.41 %ID/g
  Tumor uptake: 27.2 ± 7.55 %ID/g
  Tumor:Blood uptake ratio: 1.58 ± 0.26
  Tumor:Kidney uptake ratio: 2.07 ± 0.55
  Tumor:Muscle uptake ratio: 23.5 ± 4.66
  Tumor:Salivary gland uptake ratio: 11.3 ± 2.76
LNCaP tumor-bearing mice [1]; 4 h post-injection
  Adrenal glands uptake: 1.78 ± 0.45 %ID/g
  Blood uptake: 8.34 ± 1.67 %ID/g
  Blood:Salivary gland uptake ratio: 6.48 ± 1.02
  Bone uptake: 0.45 ± 0.13 %ID/g
  Brain uptake: 0.13 ± 0.03 %ID/g
  Fat uptake: 0.60 ± 0.13 %ID/g
  Heart uptake: 1.91 ± 0.40 %ID/g
  Intestines uptake: 0.61 ± 0.17 %ID/g
  Kidneys uptake: 9.23 ± 2.18 %ID/g
  Lacrimal glands uptake: 0.15 ± 0.07 %ID/g
  Liver uptake: 1.89 ± 0.69 %ID/g
  Lungs uptake: 4.35 ± 0.82 %ID/g
  Muscle uptake: 0.58 ± 0.13 %ID/g
  Pancreas uptake: 0.74 ± 0.18 %ID/g
  Salivary glands uptake: 1.31 ± 0.30 %ID/g
  Spleen uptake: 0.96 ± 0.29 %ID/g
  Stomach uptake: 0.42 ± 0.15 %ID/g
  Testes uptake: 1.83 ± 0.58 %ID/g
  Thyroid uptake: 1.62 ± 0.42 %ID/g
  Tumor uptake: 47.6 ± 13.5 %ID/g
  Tumor:Blood uptake ratio: 5.81 ± 1.58
  Tumor:Kidney uptake ratio: 5.38 ± 1.91
  Tumor:Muscle uptake ratio: 83.1 ± 17.0
  Tumor:Salivary gland uptake ratio: 36.4 ± 5.35
LNCaP tumor-bearing mice [1]; 24 h post-injection
  Adrenal glands uptake: 0.50 ± 0.16 %ID/g
  Blood uptake: 0.59 ± 0.13 %ID/g
  Blood:Salivary gland uptake ratio: 2.11 ± 0.47
  Bone uptake: 0.06 ± 0.04 %ID/g
  Brain uptake: 0.02 ± 0.01 %ID/g
  Fat uptake: 0.12 ± 0.04 %ID/g
  Heart uptake: 0.26 ± 0.04 %ID/g
  Intestines uptake: 0.18 ± 0.07 %ID/g
  Kidneys uptake: 5.80 ± 1.24 %ID/g
  Lacrimal glands uptake: 0.04 ± 0.03 %ID/g
  Liver uptake: 0.69 ± 0.27 %ID/g
  Lungs uptake: 0.72 ± 0.19 %ID/g
  Muscle uptake: 0.08 ± 0.02 %ID/g
  Pancreas uptake: 0.12 ± 0.03 %ID/g
  Salivary glands uptake: 0.28 ± 0.04 %ID/g
  Spleen uptake: 0.45 ± 0.10 %ID/g
  Stomach uptake: 0.25 ± 0.13 %ID/g
  Testes uptake: 0.64 ± 0.53 %ID/g
  Thyroid uptake: 0.37 ± 0.06 %ID/g
  Tumor uptake: 57.2 ± 15.3 %ID/g
  Tumor:Blood uptake ratio: 105 ± 57.4
  Tumor:Kidney uptake ratio: 10.5 ± 4.77
  Tumor:Muscle uptake ratio: 736 ± 333
  Tumor:Salivary gland uptake ratio: 202 ± 49.3
LNCaP tumor-bearing mice [1]; 72 h post-injection
  Adrenal glands uptake: 0.27 ± 0.11 %ID/g
  Blood uptake: 0.06 ± 0.02 %ID/g
  Blood:Salivary gland uptake ratio: 0.57 ± 0.17
  Bone uptake: 0.03 ± 0.02 %ID/g
  Brain uptake: 0.01 ± 0.00 %ID/g
  Fat uptake: 0.04 ± 0.02 %ID/g
  Heart uptake: 0.09 ± 0.03 %ID/g
  Intestines uptake: 0.14 ± 0.11 %ID/g
  Kidneys uptake: 2.56 ± 0.62 %ID/g
  Lacrimal glands uptake: 0.01 ± 0.01 %ID/g
  Liver uptake: 0.36 ± 0.13 %ID/g
  Lungs uptake: 0.18 ± 0.04 %ID/g
  Muscle uptake: 0.02 ± 0.01 %ID/g
  Pancreas uptake: 0.04 ± 0.01 %ID/g
  Salivary glands uptake: 0.11 ± 0.03 %ID/g
  Spleen uptake: 0.38 ± 0.15 %ID/g
  Stomach uptake: 0.28 ± 0.33 %ID/g
  Testes uptake: 0.24 ± 0.04 %ID/g
  Thyroid uptake: 0.15 ± 0.01 %ID/g
  Tumor uptake: 59.3 ± 16.0 %ID/g
  Tumor:Blood uptake ratio: 1029 ± 459
  Tumor:Kidney uptake ratio: 24.0 ± 6.93
  Tumor:Muscle uptake ratio: 3374 ± 1417
  Tumor:Salivary gland uptake ratio: 566 ± 236
LNCaP tumor-bearing mice [1]; 120 h post-injection
  Adrenal glands uptake: 0.23 ± 0.18 %ID/g
  Blood uptake: 0.02 ± 0.01 %ID/g
  Blood:Salivary gland uptake ratio: 0.31 ± 0.06
  Bone uptake: 0.02 ± 0.01 %ID/g
  Fat uptake: 0.04 ± 0.03 %ID/g
  Heart uptake: 0.05 ± 0.02 %ID/g
  Intestines uptake: 0.05 ± 0.06 %ID/g
  Kidneys uptake: 1.48 ± 0.44 %ID/g
  Liver uptake: 0.26 ± 0.11 %ID/g
  Lungs uptake: 0.07 ± 0.02 %ID/g
  Muscle uptake: 0.01 ± 0.01 %ID/g
  Pancreas uptake: 0.02 ± 0.02 %ID/g
  Salivary glands uptake: 0.05 ± 0.03 %ID/g
  Spleen uptake: 0.53 ± 0.35 %ID/g
  Stomach uptake: 0.08 ± 0.15 %ID/g
  Testes uptake: 0.16 ± 0.04 %ID/g
  Thyroid uptake: 0.09 ± 0.04 %ID/g
  Tumor uptake: 71.9 ± 19.4 %ID/g
  Tumor:Blood uptake ratio: 3996 ± 2182
  Tumor:Kidney uptake ratio: 46.4 ± 21.3
  Tumor:Muscle uptake ratio: 12778 ± 19955
  Tumor:Salivary gland uptake ratio: 1167 ± 531
LNCaP tumor-bearing mice [1]; mouse, in vivo
  Peaked tumor uptake relative to ^68Ga-labeled non-albumin-binder analog: ~ 3 fold
LNCaP tumor-bearing mice [1]; peak over 1-120 h post-injection
  Peaked average tumor uptake: ~ 60 %ID/g
LNCaP tumor-bearing mice [1]; post-injection, listed as 177Lu-labeled HTK03170
  Time of peak tumor uptake: 4 to 24 h
[2]; source organ Brain
  Kinetics value: 2.55E-02 MBq-h/MBq
[2]; source organ Cortical bone
  Kinetics value: 1.91E-01 MBq-h/MBq
[2]; source organ Heart
  Kinetics value: 7.94E-02 MBq-h/MBq
[2]; source organ Kidneys
  Kinetics value: 1.33E+00 MBq-h/MBq
[2]; source organ Large intestine contents
  Kinetics value: 1.12E-01 MBq-h/MBq
[2]; source organ Liver
  Kinetics value: 1.24E+00 MBq-h/MBq
[2]; source organ Lungs
  Kinetics value: 6.60E-02 MBq-h/MBq
[2]; source organ Pancreas
  Kinetics value: 4.12E-02 MBq-h/MBq
[2]; source organ Remainder of the body
  Kinetics value: 4.23E+00 MBq-h/MBq
[2]; source organ Small intestine
  Kinetics value: 3.35E-01 MBq-h/MBq
[2]; source organ Spleen
  Kinetics value: 1.04E-01 MBq-h/MBq
[2]; source organ Stomach
  Kinetics value: 1.32E-02 MBq-h/MBq
[2]; source organ Testes
  Kinetics value: 9.21E-02 MBq-h/MBq
[2]; source organ Thyroid
  Kinetics value: 5.15E-03 MBq-h/MBq
[2]; source organ Urinary bladder
  Kinetics value: 1.11E+00 MBq-h/MBq
LNCaP tumor-bearing mice [3]; 9.3 MBq injected
  Median survival: 90 days
LNCaP tumor-bearing mice [3]; 18.5 MBq injected
  Median survival: 131 days
LNCaP tumor-bearing mice [3]; 37 MBq injected
  Body weight of the treated mice: continuously increasing body weight
  Median survival: > 180 days
